Measured values published in patent US9108930B2, “N1- and N2-carbamoyl-1,2,3-triazole serine hydrolase inhibitors and methods” (The Scripps Research Institute, priority 2011, dated 2015).

Assays:
[1] = molecular target: T1, APEH (Mus musculus, UniProt Q8R146); assay: In vivo APEH inhibition, gel-based competitive ABPP of brain and heart; conditions: i.p., 4 h; doses 0.2-1.6 mg/kg
T1 sequence (Q8R146 1-732): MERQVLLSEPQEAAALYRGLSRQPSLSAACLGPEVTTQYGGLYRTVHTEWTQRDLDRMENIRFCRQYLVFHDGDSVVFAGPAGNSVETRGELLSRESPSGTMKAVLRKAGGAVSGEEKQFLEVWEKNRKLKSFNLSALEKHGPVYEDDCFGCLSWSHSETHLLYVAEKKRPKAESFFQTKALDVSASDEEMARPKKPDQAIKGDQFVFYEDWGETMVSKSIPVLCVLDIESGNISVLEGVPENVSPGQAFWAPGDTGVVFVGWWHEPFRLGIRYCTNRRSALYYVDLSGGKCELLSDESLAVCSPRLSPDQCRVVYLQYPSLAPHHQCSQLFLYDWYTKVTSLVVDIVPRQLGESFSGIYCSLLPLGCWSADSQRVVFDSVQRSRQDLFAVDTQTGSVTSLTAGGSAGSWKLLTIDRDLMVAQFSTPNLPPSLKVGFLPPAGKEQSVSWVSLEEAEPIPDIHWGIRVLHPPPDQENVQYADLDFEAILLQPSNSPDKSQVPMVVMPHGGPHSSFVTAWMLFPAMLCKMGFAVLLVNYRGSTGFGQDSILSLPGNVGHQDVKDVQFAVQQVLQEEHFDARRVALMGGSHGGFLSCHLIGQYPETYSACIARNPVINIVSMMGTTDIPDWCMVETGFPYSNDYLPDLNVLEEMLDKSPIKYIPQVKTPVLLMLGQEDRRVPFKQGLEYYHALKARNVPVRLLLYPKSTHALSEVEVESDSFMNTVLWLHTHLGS
Procedure: The potency and selectivity of 1,2,3-triazole ureas in vivo also was investigated. Mice were treated with the APEH inhibitor AA74-1 at various doses (0.2-1.6 mg/kg; PEG300 or 18:1:1 saline/ethanol/emulphor intraperitoneally) and sacrificed after 4 h. Brains and hearts were removed, homogenized, and analyzed by gel-based competitive ABPP. […] Finally, the possibility of extending ABPP-SILAC for the characterization of inhibitor selectivity in vivo was explored by taking advantage of recently described protocols for stable isotope labeling in mammals (SILAM). In this approach, brain tissues from vehicle- and AA74-1-treated mice were separately mixed with equivalent amounts of brain tissue from ‘heavy’ amino acid-fed mice, and the samples were then labeled with FP-biotin, enriched by avidin chromatography, analyzed by LC-MS, and SH activities quantified by measuring the ratio-of-ratios for observed peptide signals. […] The ratio-of-ratio signals for APEH indicated greater than 90% inhibition of this enzyme in AA74-1-treated animals (FIG. 5b, top), consistent with average spectral count values (14 and 1 spectral counts for APEH in vehicle-treated versus AA74-1-treated mice, respectively; FIG. 5b, bottom). […] ACHE, an enzyme that is targeted by other reported NHU inhibitors, was not inhibited by AA74-1 in either mouse brain (FIG. 5b) or transfected cell (FIG. 16) proteomes. […]

[2] = molecular target: T2, acetylcholinesterase (ACHE) (Mus musculus, UniProt P21836); assay: Competitive ABPP of ACHE recombinantly expressed in COS-7 cells; type: biochemical; conditions: 30 minutes at 37° C.
T2 construct: full-length cDNAs encoding mouse serine hydrolases were either transfected directly; host or cells: COS-7 cells
T2 sequence (P21836 32-614): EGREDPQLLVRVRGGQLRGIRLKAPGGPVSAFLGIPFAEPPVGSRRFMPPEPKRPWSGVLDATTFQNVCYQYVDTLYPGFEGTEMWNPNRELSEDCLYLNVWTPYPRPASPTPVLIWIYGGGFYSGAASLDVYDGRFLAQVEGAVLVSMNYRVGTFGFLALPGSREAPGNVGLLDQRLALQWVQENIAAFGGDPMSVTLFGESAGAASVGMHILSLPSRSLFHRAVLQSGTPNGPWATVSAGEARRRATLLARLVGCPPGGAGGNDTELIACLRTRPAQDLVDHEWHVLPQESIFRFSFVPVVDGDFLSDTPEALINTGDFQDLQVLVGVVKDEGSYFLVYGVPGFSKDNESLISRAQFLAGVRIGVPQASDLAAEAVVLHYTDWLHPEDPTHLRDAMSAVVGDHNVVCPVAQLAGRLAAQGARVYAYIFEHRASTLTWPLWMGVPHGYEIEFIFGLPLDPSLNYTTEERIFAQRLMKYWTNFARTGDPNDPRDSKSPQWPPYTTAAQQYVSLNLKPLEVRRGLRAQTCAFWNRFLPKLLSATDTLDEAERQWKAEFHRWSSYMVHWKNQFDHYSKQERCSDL
Procedure: ACHE was recombinantly expressed in COS-7 cells. Whole cell proteome was mixed 1:1 with soluble mouse brain proteome and treated with DMSO or AA74-1 in vitro at indicated concentrations for 30 minutes at 37° C., after which the samples were analyzed by competitive ABPP. Note that ACHE migrates as multiple bands by SDS-PAGE due to heterogeneous glycosylation. ACHE inhibition in vivo was not observed, as reflected by the equal signals for this enzyme in competitive ABPP results shown in FIG. 5b.
Briefly, full-length cDNAs encoding mouse serine hydrolases were either transfected directly (if available in a eukaryotic expression vector) or subcloned into pcDNA3 (Invitrogen). COS-7 or HEK-293 cells were grown to about 70% confluence in 10 cm dishes in complete medium (DMEM with L-glutamine, nonessential amino acids, sodium pyruvate, and FCS) at 37° C. and 5% CO2. The cells were transiently transfected by using the appropriate cDNA or empty vector control (“mock”) and the FUGENE® 6 (Roche Applied Science) transfection reagents following the manufacturers' protocols. After 48 hrs, the cells were washed twice with phosphate-buffered saline (PBS), and collected by scraping.

[3] = molecular target: T3, ABHD6 (Mus musculus, UniProt Q8R2Y0); assay: ABPP-MudPIT of peritoneal macrophages from treated mice; design: from tissue; host or cells: thioglycolate-elicited peritoneal macrophages of mice; conditions: in vivo
T3 sequence (Q8R2Y0 1-336): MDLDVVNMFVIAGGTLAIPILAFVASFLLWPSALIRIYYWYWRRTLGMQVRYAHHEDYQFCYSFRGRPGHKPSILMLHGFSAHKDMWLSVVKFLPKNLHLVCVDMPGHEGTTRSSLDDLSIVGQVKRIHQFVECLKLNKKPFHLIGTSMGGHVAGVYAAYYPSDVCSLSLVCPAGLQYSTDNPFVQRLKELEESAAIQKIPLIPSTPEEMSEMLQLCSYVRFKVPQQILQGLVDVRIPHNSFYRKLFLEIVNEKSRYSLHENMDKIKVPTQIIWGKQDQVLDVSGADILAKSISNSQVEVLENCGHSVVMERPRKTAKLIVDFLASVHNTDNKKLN

[4] = molecular target: T3, ABHD6; assay: In situ inhibition in Neuro2A cells, competitive ABPP; type: cell-based; conditions: 4 hours, same dose as used for DAGLB by KT109 and KT172
Procedure: For gel-based competitive ABPP studies, proteomes from cells treated in situ with inhibitor for 4 h at 37° C. at the indicated concentrations (n=3) were labeled with HT-01 (1 μM) for 30 min at 37° C. After quenching, SDS-PAGE, and in-gel visualization, the percentage of enzyme activity remaining was determined by measuring the integrated optical intensity of the bands using IMAGER® software. For LC-MS substrate assays, the percentage of enzyme activity remaining was determined by comparing the specific activity (amount of 2-AG formed per min per mg of proteome) of inhibitor with DMSO-treated samples. The IC50 values were determined from a dose-response curve generated using GraphPad PRISM® software.

Compound	dose (as low as) giving complete inhibition of APEH in brain and heart [1]	ACHE inhibition in transfected cell proteome [2]	ABHD6 inhibition by spectral counting [3]	inactivation of ABHD6 in Neuro2A cells [4]
CC(C)CC(O)(CC(C)C)c1cnn(C(=O)N2CCCC2)n1 [AA74-1]	0.4 mg/kg	not inhibited	–	–
COc1ccc(-c2ccc(-c3cn(C(=O)N4CCCCC4c4ccccc4)nn3)cc2)cc1 (stereo not shown) [KT195]	–	–	complete inhibition of ABHD6	completely inactivating ABHD6
